Test results reported in patent publication US20040137472A1, “Methods and compositions for modification of splicing of pre-mRNA” (priority 2002, published 2004).

Tests used:
Format in all cases: cell-based, human
IVS2-705 β-globin cells = assay: RT-PCR analysis of splicing correction, IVS2-705 β-globin cells; parameters: key: Compounds causing correction by RT-PCR. are indicated by a (+) sign; conditions: 50 μM compound
Excerpt: β-globin cell lines were obtained by stable transfection of HeLa cells with the human β-globin gene carrying thalassemic mutations at either IVS2-654 or IVS2-705. The cloned genes were under the control of the immediate early cytomegalovirus promoter (Sierakowska, et al., (1996) Proc. Natl. Acad. Sci. USA 93:12840-12844). The IVS2-654 EGFP cell line is well known in the art (Sazani (2001) Nucl. Acids Res. 29:3965-3974). The IVS2-705U EGFP cell line was made in the same manner using a different plasmid. HeLa cells were grown in SMEM with 5% horse serum, 5% fetal calf serum, 1% L-glutamine and 1% gentamicin/kanamycin.
(§1) A RT-PCR-based assay was performed to determine if the fluorescence observed on the EGFP cells was a result of the compounds shifting splicing. […] Therefore, primers located in exons 2 and 3 are used to PCR amplify the products, and the size difference is detected by running the products on an acrylamide gel.
After the IVS2-705U and IVS2-654 EGFP cells were re-treated with positive compounds and examined on the microscope, total RNA was isolated using TRI-REAGENT® (Molecular Research Center, Inc., Cincinnati, Ohio). A total of 200 ng of RNA was analyzed by reverse transcription polymerase chain reaction (RT-PCR) using rTth DNA polymerase (Perkin-Elmer, Boston, Mass.) according to manufacturer's instructions. […]

IVS2-705U EGFP cells [1] = assay: EGFP fluorescence screen by fluorescence microscopy, IVS2-705U EGFP HeLa cells; parameters: key: Compounds causing moderate to high levels of fluorescence with no autofluorescence of the compound itself are indicated by a (+) sign; A (+/−) indicates compounds causing faint levels of fluorescence or compounds that have some autofluorescence in addition to causing the cells to fluoresce; A (−) sign indicates that the compounds did not cause detectable levels of fluorescence; conditions: 50 μM compound, 24 hours, detected by eye
Experimental: The screen was carried out using HeLa cell lines stably transfected with an EGFP (enhanced green fluorescent protein) construct. This construct contains the EGFP cDNA disrupted by intron 2 of the β-globin gene, containing thalassemic mutations (FIG. 1), and was under the control of the CMV promoter. Two different cell lines were generated with this construct, one with a mutation at position 654 (IVS2-654 EGFP) and another with a mutation at position 705 (IVS2-705U EGFP).
For both constructs, disruption of EGFP with mutated intron 2 results in a lack of production of a functional EGFP protein. When correct splicing is restored to a cell, intron 2 is excised and functional EGFP protein is generated (Sazani (2001) Nucl. Acids Res. 29:3965-3974).
Cells were plated in black well, clear bottom 96-well plates at 13×10^4 cells/ml, 100 μl per well. The rows on the ends of the plate (rows 1 and 12) were control rows and the remaining rows were treated with compounds. In the control rows, positive control EGFP cells were alternated with untreated cells serving as negative controls. […]
Twenty-four hours after treatment, the medium was removed and the cells were washed 2 times in 150 μl 1× PBS. […] Cells were then examined on an Olympus inverted fluorescence microscope at 10× or 20× using a FITC filter. Fluorescence was detected by eye. Attempts to utilize a fluorescence plate reader failed as the plate reader was not sensitive enough to detect the expected low levels of EGFP fluorescence.
The criteria used to designate a compound as a positive were as follows. […] Additionally, the fluorescence had to be mostly uniform throughout all of the cells. This criterion was complicated by the fact that many of the compounds had varying levels of autofluorescence, and therefore were difficult to distinguish from those that caused cellular fluorescence. […]
The IVS2-705U and IVS2-654 EGFP cell lines were treated a second time with the 132 positive compounds and analyzed on a fluorescence microscope. […]

IVS2-705U EGFP cells [2] = assay: RT-PCR analysis of splicing correction, IVS2-705U EGFP cells; parameters: key: Compounds causing correction by RT-PCR. are indicated by a (+) sign; conditions: 50 μM compound
Experimental: as §1
After the IVS2-705U and IVS2-654 EGFP cells were re-treated with positive compounds and examined on the microscope, total RNA was isolated using TRI-REAGENT® (Molecular Research Center, Inc., Cincinnati, Ohio). A total of 200 ng of RNA was analyzed by reverse transcription polymerase chain reaction (RT-PCR) using rTth DNA polymerase (Perkin-Elmer, Boston, Mass.) according to manufacturer's instructions. The reverse transcription step was carried out at 70° C. for 15 minutes. The PCR step included 1 cycle, 95° C., 3 minutes: 18 cycles. 95° C., 1 minute, 65° C., 1 minute. For β-globin mRNA amplification, the reverse primer spanned positions 6-28 of exon 3 and the forward primer spanned positions 21-43 of exon 2 of the human β-globin gene. […]
FIG. 3 provides an example of a polyacrylamide gel with RT-PCR products from EGFP cells treated with several positive compounds. The amount of correction was determined by comparing the ratio of the aberrant band and the correct band.

Structure (SMILES): CCOc1cccc(CN2CCN(c3ccc(F)cc3)CC2)c1O [AA11]
- 705 β-globin RT-PCR (IVS2-705 β-globin cells): +
- 705U EGFP Fluorescence (IVS2-705U EGFP cells [1]): −

Structure (SMILES): COc1ccc(CCN(C)Cc2cc(OC)c(OC)cc2Br)cc1OC [Compound A5]
- 705U EGFP Fluorescence (IVS2-705U EGFP cells [1]): +/−

Structure (SMILES): CC(C)(C)c1ccc(C(=O)NNC(=O)Cc2ccc(-c3ccccc3)cc2)cc1 [Compound E11]
- 705U EGFP RT-PCR (IVS2-705U EGFP cells [2]): +
- 705 β-globin RT-PCR (IVS2-705 β-globin cells): +
- 705U EGFP Fluorescence (IVS2-705U EGFP cells [1]): −
